Measured values reported in patent US11622991B2, “Protocol for treatment of lupus nephritis” (Aurinia Pharmaceuticals Inc., priority 2017, dated 2023).

What was measured:
lupus nephritis [1] = test: Predictability from early reduction in UPCR or C3/C4 normalization combined at 12 weeks (Tables 13-17); assay type: in vivo, human
Description: PR is defined as at least 50% reduction in proteinuria (i.e. UPCR).
Sensitivity is defined as the probability that a subject showing PR at 48 weeks would have shown a favorable result with regard to the marker at the designated early time point. In the tables below, this is the ratio of the number of subjects with favorable marker results (early drop or normalization) to the total subjects with 48 week PR.
Specificity is defined as the probability that a subject not showing PR at 48 weeks would have shown an unfavorable result with regard to the marker at the designated early time point. In the tables below, this is the ratio of the number of subjects with unfavorable marker results (no early drop or no normalization) to the total subjects with no 48 week PR.
Positive predictive value is defined as the probability that a subject showing a favorable result with respect to the marker at an earlier time point would show PR at 48 weeks. In the tables below, this is the ratio of the number of subjects with favorable marker results who have 48 week PR to those with favorable marker results (early reduction or yes column).
Negative predictive value is defined as the probability that a subject showing an unfavorable result with respect to the marker at an earlier time point would not show PR at 48 weeks. In the tables below, this is the ratio of the number of subjects with unfavorable marker results who have no PR at 48 weeks to the total subjects with unfavorable marker results (no early reduction or no column). […]

lupus nephritis [2] = test: Low dosage protocol (15.8 mg or 7.9 mg BID); assay type: in vivo, human
[3] = Early 30% reduction in UPCR or C3/C4 normalization, Week 24, 23.7 mg BID, number of patients
[4] = Early 30% reduction in UPCR or C3/C4 normalization, Week 48, 23.7 mg BID, number of patients
[5] = Early 30% reduction in UPCR or C3/C4 normalization, Week 48, 39.5 mg BID, number of patients
[6] = Early 35% reduction in UPCR or C3/C4 normalization, Week 12, 23.7 mg BID, number of patients
[7] = Early 35% reduction in UPCR or C3/C4 normalization, Week 12, 39.5 mg BID, number of patients
[8] = Early 35% reduction in UPCR or C3/C4 normalization, Week 24, 23.7 mg BID, number of patients
[9] = Early 35% reduction in UPCR or C3/C4 normalization, Week 48, 23.7 mg BID, number of patients
[10] = Early 35% reduction in UPCR or C3/C4 normalization, Week 48, 39.5 mg BID, number of patients
[11] = early 15% reduction in UPCR or C3/C4 normalization, week 12, 23.7 mg BID
[12] = early 15% reduction in UPCR or C3/C4 normalization, week 12, 39.5 mg BID
[13] = early 15% reduction in UPCR or C3/C4 normalization, week 24, 23.7 mg BID
[14] = early 15% reduction in UPCR or C3/C4 normalization, week 24, 39.5 mg BID
[15] = early 15% reduction in UPCR or C3/C4 normalization, week 48, 23.7 mg BID
[16] = early 15% reduction in UPCR or C3/C4 normalization, week 48, 39.5 mg BID
[17] = early 20% reduction in UPCR or C3/C4 normalization, week 12, 23.7 mg BID
[18] = early 20% reduction in UPCR or C3/C4 normalization, week 12, 39.5 mg BID
[19] = early 20% reduction in UPCR or C3/C4 normalization, week 24, 23.7 mg BID
[20] = early 20% reduction in UPCR or C3/C4 normalization, week 24, 39.5 mg BID
[21] = early 20% reduction in UPCR or C3/C4 normalization, week 48, 23.7 mg BID
[22] = early 20% reduction in UPCR or C3/C4 normalization, week 48, 39.5 mg BID

C=C/C=C/C[C@@H](C)[C@@H](O)[C@H]1C(=O)N[C@@H](CC)C(=O)N(C)CC(=O)N(C)[C@@H](CC(C)C)C(=O)N[C@@H](C(C)C)C(=O)N(C)[C@@H](CC(C)C)C(=O)N[C@@H](C)C(=O)N[C@H](C)C(=O)N(C)[C@@H](CC(C)C)C(=O)N(C)[C@@H](CC(C)C)C(=O)N(C)[C@@H](C(C)C)C(=O)N1C [voclosporin]
Early Drop or Normal No (lupus nephritis [1]; [3]): 1 | No Week 48 Partial Remission, No Early Drop or Normal (lupus nephritis [1]; [3]): 1 | Early Drop or Normal No (lupus nephritis [1]; Early 30% reduction in UPCR or C3/C4 normalization, Week 24, 39.5 mg BID, number of patients): 10 | Early Drop or Normal No (lupus nephritis [1]; [4]): 2 | No Week 48 Partial Remission, Early Drop or Normal (lupus nephritis [1]; [4]): 9 | No Week 48 Partial Remission, No Early Drop or Normal (lupus nephritis [1]; [4]): 2 | Early Drop or Normal No (lupus nephritis [1]; [5]): 8 | No Week 48 Partial Remission, Early Drop or Normal (lupus nephritis [1]; [5]): 8 | No Week 48 Partial Remission, No Early Drop or Normal (lupus nephritis [1]; [5]): 8 | Early Drop or Normal No (lupus nephritis [1]; [6]): 9 | Week 48 Partial Remission, No Early Drop or Normal (lupus nephritis [1]; [6]): 4 | Early Drop or Normal No (lupus nephritis [1]; [7]): 9 | No Week 48 Partial Remission, No Early Drop or Normal (lupus nephritis [1]; [7]): 3 | Early Drop or Normal No (lupus nephritis [1]; [8]): 4 | No Week 48 Partial Remission, Early Drop or Normal (lupus nephritis [1]; [8]): 10 | No Week 48 Partial Remission, No Early Drop or Normal (lupus nephritis [1]; [8]): 4 | Early Drop or Normal No (lupus nephritis [1]; Early 35% reduction in UPCR or C3/C4 normalization, Week 24, 39.5 mg BID, number of patients): 10 | Early Drop or Normal No (lupus nephritis [1]; [9]): 3 | No Week 48 Partial Remission, Early Drop or Normal (lupus nephritis [1]; [9]): 8 | No Week 48 Partial Remission, No Early Drop or Normal (lupus nephritis [1]; [9]): 3 | Early Drop or Normal No (lupus nephritis [1]; [10]): 9 | No Week 48 Partial Remission, Early Drop or Normal (lupus nephritis [1]; [10]): 7 | No Week 48 Partial Remission, No Early Drop or Normal (lupus nephritis [1]; [10]): 9 | Early Drop or Normal No (lupus nephritis [1]; [11]): 2 | No Week 48 Partial Remission, No Early Drop or Normal (lupus nephritis [1]; [11]): 1 | Week 48 Partial Remission, No Early Drop or Normal (lupus nephritis [1]; [11]): 1 | No Week 48 Partial Remission, No Early Drop or Normal (lupus nephritis [1]; [12]): 3 | Week 48 Partial Remission, No Early Drop or Normal (lupus nephritis [1]; [12]): 3 | Early Drop or Normal No (lupus nephritis [1]; [13]): 1 | No Week 48 Partial Remission, No Early Drop or Normal (lupus nephritis [1]; [13]): 1 | Early Drop or Normal No (lupus nephritis [1]; [14]): 9 | No Week 48 Partial Remission, No Early Drop or Normal (lupus nephritis [1]; [14]): 4 | Early Drop or Normal No (lupus nephritis [1]; [15]): 1 | No Week 48 Partial Remission, Early Drop or Normal (lupus nephritis [1]; [15]): 10 | No Week 48 Partial Remission, No Early Drop or Normal (lupus nephritis [1]; [15]): 1 | Early Drop or Normal No (lupus nephritis [1]; [16]): 4 | No Week 48 Partial Remission, No Early Drop or Normal (lupus nephritis [1]; [16]): 4 | Early Drop or Normal No (lupus nephritis [1]; [17]): 3 | No Week 48 Partial Remission, No Early Drop or Normal (lupus nephritis [1]; [17]): 2 | Week 48 Partial Remission, No Early Drop or Normal (lupus nephritis [1]; [17]): 1 | No Week 48 Partial Remission, No Early Drop or Normal (lupus nephritis [1]; [18]): 3 | Week 48 Partial Remission, No Early Drop or Normal (lupus nephritis [1]; [18]): 3 | Early Drop or Normal No (lupus nephritis [1]; [19]): 1 | No Week 48 Partial Remission, No Early Drop or Normal (lupus nephritis [1]; [19]): 1 | Early Drop or Normal No (lupus nephritis [1]; [20]): 9 | No Week 48 Partial Remission, No Early Drop or Normal (lupus nephritis [1]; [20]): 4 | Early Drop or Normal No (lupus nephritis [1]; [21]): 1 | No Week 48 Partial Remission, Early Drop or Normal (lupus nephritis [1]; [21]): 10 | No Week 48 Partial Remission, No Early Drop or Normal (lupus nephritis [1]; [21]): 1 | Early Drop or Normal No (lupus nephritis [1]; [22]): 4 | No Week 48 Partial Remission, No Early Drop or Normal (lupus nephritis [1]; [22]): 4 | remission at reduced dosage (lupus nephritis [2]; dosage lowered to 7.9 mg BID quite early in the treatment): Substantial numbers of subjects showed complete or partial remission | remission at reduced dosage (lupus nephritis [2]; dosage reduced almost immediately to 15.8 mg BID): a substantial portion of subjects showed substantial remission
